In patent publication US10414811B2, “Protease-resistant lipidated GLP-1 analogs” (MEDIMMUNE LIMITED, priority 2015, dated 2019):
pEC50: −log10 of the molar value. Read-outs that look alike come from different tables or passages of the source. Numbered stars: 1 amine (or outer) side, 2 acyl side, 3 side chain; on linkers, the order of the positions; unused ones are H or OH. Square brackets hold non-standard residues; d marks the D form. Side chains are listed from the residue outwards. Peptide text beside a SMILES is read from it. * marks the point of attachment. γGlu = O=C(O)[C@H](CCC(=O)[*:2])N[*:1]; Palmitoyl = CCCCCCCCCCCCCCCC(=O)*; αMeF = C[C@](N)(Cc1ccccc1)C(=O)O; αMeK = C[C@](N)(CCCCN)C(=O)O; Lauroyl = CCCCCCCCCCCC(=O)*; αMeS = C[C@](N)(CO)C(=O)O; AEEA = NCCOCCOCC(=O)O; Aib = CC(C)(N)C(=O)O

Tests used:
Type in all cases: cell-based
[1] = molecular target: T1, human glucagon receptor (GCGR) (Homo sapiens, UniProt P47871); experiment: cAMP assay, human GCGR cells
T1 construct: expressed in transfected cells
T1 sequence (P47871 26-477): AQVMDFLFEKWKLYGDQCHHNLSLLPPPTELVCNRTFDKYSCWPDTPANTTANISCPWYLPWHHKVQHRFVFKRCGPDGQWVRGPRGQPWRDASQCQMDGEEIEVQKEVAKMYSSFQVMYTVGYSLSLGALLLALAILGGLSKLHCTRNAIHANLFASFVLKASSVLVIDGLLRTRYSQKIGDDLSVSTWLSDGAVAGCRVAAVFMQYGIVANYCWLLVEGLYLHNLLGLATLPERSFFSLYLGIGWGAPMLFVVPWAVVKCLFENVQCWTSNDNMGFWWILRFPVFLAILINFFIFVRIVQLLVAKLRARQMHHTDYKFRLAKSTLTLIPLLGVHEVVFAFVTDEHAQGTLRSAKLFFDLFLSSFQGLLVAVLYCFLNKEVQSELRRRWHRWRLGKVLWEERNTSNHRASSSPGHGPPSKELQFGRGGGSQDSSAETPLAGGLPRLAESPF
In short: (§1)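 Peptide-stimulated cAMP measured by two-step HTRF after a 30 min room-temperature incubation with receptor-expressing cells (hGLP-1R, hGIPR at 1×10^5 cells/ml; hGCGR at 2×10^5 cells/ml). Duplicate dilutions; EC50 from 4-parameter logistic fit of % Delta F.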

[2] = molecular target: T2, human GLP-1 receptor (GLP-1R) (Homo sapiens, UniProt P43220); experiment: cAMP assay, human GLP-1R cells; conditions: for EC50: mean of n1 and n2, read-out: Mean pM GLP-1R
T2 construct: expressed in transfected cells
T2 sequence (P43220 24-463): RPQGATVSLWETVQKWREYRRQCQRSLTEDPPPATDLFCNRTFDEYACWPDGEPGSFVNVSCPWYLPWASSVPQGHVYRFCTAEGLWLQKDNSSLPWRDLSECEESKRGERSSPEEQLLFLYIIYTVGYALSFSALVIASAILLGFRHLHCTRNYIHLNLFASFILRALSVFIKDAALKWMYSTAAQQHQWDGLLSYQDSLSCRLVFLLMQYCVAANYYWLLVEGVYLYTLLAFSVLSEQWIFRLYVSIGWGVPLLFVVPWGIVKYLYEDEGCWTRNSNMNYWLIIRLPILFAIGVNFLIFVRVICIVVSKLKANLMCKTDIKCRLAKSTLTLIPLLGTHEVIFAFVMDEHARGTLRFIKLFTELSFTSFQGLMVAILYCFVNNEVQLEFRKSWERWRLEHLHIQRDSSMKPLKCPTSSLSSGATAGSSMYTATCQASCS
In short: as §1

GLP-1R (INS1e assay) = molecular target: T3, GLP-1R (INS1e assay) (Rattus norvegicus, UniProt P32301); experiment: INS1e assay, cAMP activity at GLP-1R; conditions: for EC50: mean of n1 and n2, read-out: INS1e assay EC50 Mean pM GLP-1R
T3 construct: endogenous in cells; host or cells: INS-1E cells
T3 sequence (P32301 22-463): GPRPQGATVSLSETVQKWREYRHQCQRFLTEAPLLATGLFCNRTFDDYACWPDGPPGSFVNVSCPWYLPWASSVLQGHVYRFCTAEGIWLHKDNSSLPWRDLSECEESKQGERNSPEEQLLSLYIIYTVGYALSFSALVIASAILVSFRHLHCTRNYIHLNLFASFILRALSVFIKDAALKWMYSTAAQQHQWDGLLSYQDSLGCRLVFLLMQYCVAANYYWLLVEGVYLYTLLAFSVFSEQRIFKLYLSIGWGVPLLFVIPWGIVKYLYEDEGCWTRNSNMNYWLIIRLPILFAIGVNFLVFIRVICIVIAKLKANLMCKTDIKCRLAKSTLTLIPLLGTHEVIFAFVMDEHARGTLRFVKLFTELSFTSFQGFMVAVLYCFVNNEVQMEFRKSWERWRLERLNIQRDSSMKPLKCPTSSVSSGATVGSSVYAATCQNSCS
In short: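 It pairs cAMP-d2 acceptor with anti-cAMP cryptate donor, both prepared 1/20 in conjugate/lysis buffer, applied as a two-step protocol.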

[3] = molecular target: T4, human glucose-dependent insulinotropic peptide receptor (GIPR) (Homo sapiens, UniProt P48546); experiment: cAMP assay, human GIPR cells
T4 construct: expressed in transfected cells
T4 sequence (P48546 22-466): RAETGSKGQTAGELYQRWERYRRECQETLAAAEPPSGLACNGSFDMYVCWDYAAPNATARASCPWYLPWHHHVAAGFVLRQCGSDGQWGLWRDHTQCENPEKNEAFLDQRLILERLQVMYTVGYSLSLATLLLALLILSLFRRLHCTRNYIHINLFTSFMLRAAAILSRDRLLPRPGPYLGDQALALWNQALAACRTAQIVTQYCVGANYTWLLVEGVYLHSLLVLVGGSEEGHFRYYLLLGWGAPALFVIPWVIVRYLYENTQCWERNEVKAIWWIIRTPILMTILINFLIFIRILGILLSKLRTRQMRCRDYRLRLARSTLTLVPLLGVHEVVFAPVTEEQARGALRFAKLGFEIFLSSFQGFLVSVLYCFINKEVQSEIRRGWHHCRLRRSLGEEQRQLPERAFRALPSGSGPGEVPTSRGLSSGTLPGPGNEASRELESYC
In short: as §1

[4] = cAMP assay, first determination (n1), read-out: Primary assay EC50 Gluc-R (n1)
[5] = cAMP assay, second determination (n2), read-out: Primary assay EC50 Gluc-R (n2)
[6] = cAMP assay, first determination (n1), read-out: Primary assay EC50 GLP-1R n1
[7] = cAMP assay, second determination (n2), read-out: Primary assay EC50 GLP-1R n2
[8] = mono-lipidated peptides, replicate n1, read-out: INS1e assay EC50 GLP-1R n1
[9] = mono-lipidated peptides, replicate n2, read-out: INS1e assay EC50 GLP-1R n2
[10] = cAMP assay, first determination (n1), read-out: Primary assay EC50 GIP-R (n1)
[11] = cAMP assay, second determination (n2), read-out: Primary assay EC50 GIP-R (n2)

pEC50 ([1]; bis-lipidated peptides, first replicate, read-out: Primary assay EC50 Gluc-R (n1))	pEC50 ([2]; bis-lipidated peptides, replicate n1, read-out: Primary assay EC50 GLP-1R n1)	pEC50 ([2]; bis-lipidated peptides, replicate n2, read-out: Primary assay EC50 GLP-1R n2)	EC50 (GLP-1R (INS1e assay); bis-lipidated peptides) [pM]	pEC50 (GLP-1R (INS1e assay); bis-lipidated peptides, replicate n1, read-out: INS1e assay EC50 GLP-1R n1)	pEC50 (GLP-1R (INS1e assay); bis-lipidated peptides, replicate n2, read-out: INS1e assay EC50 GLP-1R n2)	pEC50 ([3]; bis-lipidated peptides, first replicate, read-out: Primary assay EC50 GIP-R (n1))	pEC50 [1, 4]	pEC50 [1, 5]	pEC50 [2, 6]	pEC50 [2, 7]	EC50 [2] [pM]	EC50 (GLP-1R (INS1e assay); mono-lipidated peptides) [pM]	pEC50 (GLP-1R (INS1e assay); [8])	pEC50 (GLP-1R (INS1e assay); [9])	pEC50 [3, 10]	pEC50 [3, 11]	Structure (SMILES)
≤ 7.67	11.66	11.64	94	10.00	10.06	≤ 7.67	–	–	–	–	–	–	–	–	–	–	CCCCCCCCCCCC(=O)N[C@@H](CCC(=O)NCCOCCOCC(=O)NCCOCCOCC(=O)NCCCC[C@H](NC(=O)[C@H](C)NC(=O)[C@@H](NC(=O)[C@H](Cc1ccc(OC)cc1)NC(=O)[C@H](CCC(=O)O)NC(=O)[C@](C)(CCCCN)NC(=O)[C@H](C)NC(=O)[C@H](C)NC(=O)[C@H](CCC(=O)O)NC(=O)CNC(=O)[C@H](CCC(=O)O)NC(=O)[C@H](CC(C)C)NC(=O)[C@H](CCCCNC(=O)COCCOCCNC(=O)COCCOCCNC(=O)CC[C@H](NC(=O)CCCCCCCCCCC)C(=O)O)NC(=O)[C@H](CO)NC(=O)[C@](C)(CO)NC(=O)[C@@H](NC(=O)[C@H](CC(=O)O)NC(=O)[C@H](CO)NC(=O)[C@@H](NC(=O)[C@](C)(Cc1ccccc1)NC(=O)[C@H](CO)NC(=O)CNC(=O)[C@H](CCC(=O)O)NC(=O)C(C)(C)NC(=O)[C@@H](N)Cc1c[nH]cn1)[C@@H](C)O)C(C)C)[C@@H](C)CC)C(=O)N[C@H](C(=O)N[C@H](C(=O)N[C@@H](CCC(=O)O)C(=O)NCC(=O)NCC(N)=O)C(C)C)C(C)C)C(=O)O [compound 406] (H-H[Aib]EGS[αMeF]TSDV[αMeS]SK([AEEA-AEEA-γGlu-Lauroyl])LEGEAA[αMeK]EY(Me)IAK([AEEA-AEEA-γGlu-Lauroyl])VVEGG-NH2; N-terminus assumed)
–	–	–	–	–	–	–	≤ 7.55	≤ 7.55	11.41	11.64	3.1	408	9.54	9.28	≤ 7.55	≤ 7.55	CCCCCCCCCCCCCCCC(=O)N[C@@H](CCC(=O)NCCCC[C@H](NC(=O)[C@](C)(CCCCN)NC(=O)[C@H](C)NC(=O)[C@H](C)NC(=O)[C@H](CCC(=O)O)NC(=O)CNC(=O)[C@H](CCC(=O)O)NC(=O)[C@H](CC(C)C)NC(=O)[C@](C)(Cc1ccccc1)NC(=O)[C@H](CO)NC(=O)[C@](C)(CO)NC(=O)[C@@H](NC(=O)[C@H](CC(=O)O)NC(=O)[C@H](CO)NC(=O)[C@@H](NC(=O)[C@](C)(Cc1ccccc1)NC(=O)[C@H](CO)NC(=O)CNC(=O)[C@H](CCC(=O)O)NC(=O)C(C)(C)NC(=O)[C@@H](N)Cc1c[nH]cn1)[C@@H](C)O)C(C)C)C(=O)N[C@@](C)(Cc1ccccc1)C(=O)N[C@H](C(=O)N[C@@H](C)C(=O)N[C@@](C)(Cc1ccccc1)C(=O)N[C@H](C(=O)N[C@H](C(=O)N[C@@](C)(CCCCN)C(=O)NCC(=O)NCC(N)=O)C(C)C)C(C)C)[C@@H](C)CC)C(=O)O [compound 79] (H-H[Aib]EGS[αMeF]TSDV[αMeS]S[αMeF]LEGEAA[αMeK]K([γGlu-Palmitoyl])[αMeF]IA[αMeF]VV[αMeK]GG-NH2)

Second part, the molecule before the results:

Structure (SMILES)	pEC50 ([1]; bis-lipidated peptides, first replicate, read-out: Primary assay EC50 Gluc-R (n1))	pEC50 ([2]; bis-lipidated peptides, replicate n1, read-out: Primary assay EC50 GLP-1R n1)	pEC50 ([2]; bis-lipidated peptides, replicate n2, read-out: Primary assay EC50 GLP-1R n2)	EC50 (GLP-1R (INS1e assay); bis-lipidated peptides) [pM]	pEC50 (GLP-1R (INS1e assay); bis-lipidated peptides, replicate n1, read-out: INS1e assay EC50 GLP-1R n1)	pEC50 (GLP-1R (INS1e assay); bis-lipidated peptides, replicate n2, read-out: INS1e assay EC50 GLP-1R n2)	pEC50 ([3]; bis-lipidated peptides, first replicate, read-out: Primary assay EC50 GIP-R (n1))	pEC50 [1, 4]	pEC50 [1, 5]	pEC50 [2, 6]	pEC50 [2, 7]	EC50 [2] [pM]	EC50 (GLP-1R (INS1e assay); mono-lipidated peptides) [pM]	pEC50 (GLP-1R (INS1e assay); [8])	pEC50 (GLP-1R (INS1e assay); [9])	pEC50 [3, 10]	pEC50 [3, 11]
CCCCCCCCCCCCCCCC(=O)N[C@@H](CCC(=O)NCCCC[C@H](NC(=O)[C@](C)(CCCCN)NC(=O)[C@@H](NC(=O)[C@@H](NC(=O)[C@](C)(Cc1ccccc1)NC(=O)[C@H](C)NC(=O)[C@@H](NC(=O)[C@](C)(Cc1ccccc1)NC(=O)[C@H](CCC(=O)O)NC(=O)[C@](C)(CCCCN)NC(=O)[C@H](C)NC(=O)[C@H](C)NC(=O)[C@H](CCC(=O)O)NC(=O)CNC(=O)[C@H](CCC(=O)O)NC(=O)[C@H](CC(C)C)NC(=O)[C@](C)(Cc1ccccc1)NC(=O)[C@H](CO)NC(=O)[C@](C)(CO)NC(=O)[C@@H](NC(=O)[C@H](CC(=O)O)NC(=O)[C@H](CO)NC(=O)[C@@H](NC(=O)[C@](C)(Cc1ccccc1)NC(=O)[C@H](CO)NC(=O)CNC(=O)[C@H](CCC(=O)O)NC(=O)C(C)(C)NC(=O)[C@@H](N)Cc1c[nH]cn1)[C@@H](C)O)C(C)C)[C@@H](C)CC)C(C)C)C(C)C)C(=O)NCC(N)=O)C(=O)O [compound 71] (H-H[Aib]EGS[αMeF]TSDV[αMeS]S[αMeF]LEGEAA[αMeK]E[αMeF]IA[αMeF]VV[αMeK]K([γGlu-Palmitoyl])G-NH2)	–	–	–	–	–	–	–	≤ 7.57	≤ 7.57	11.21	11.10	7.1	723	9.22	9.08	≤ 7.57	≤ 7.57
CCCCCCCCCCCCCCCC(=O)N[C@@H](CCC(=O)NCCCC[C@H](NC(=O)[C@](C)(Cc1ccccc1)NC(=O)[C@H](C)NC(=O)[C@@H](NC(=O)[C@](C)(Cc1ccccc1)NC(=O)[C@H](CCC(=O)O)NC(=O)[C@](C)(CCCCN)NC(=O)[C@H](C)NC(=O)[C@H](C)NC(=O)[C@H](CCC(=O)O)NC(=O)CNC(=O)[C@H](CCC(=O)O)NC(=O)[C@H](CC(C)C)NC(=O)[C@](C)(Cc1ccccc1)NC(=O)[C@H](CO)NC(=O)[C@](C)(CO)NC(=O)[C@@H](NC(=O)[C@H](CC(=O)O)NC(=O)[C@H](CO)NC(=O)[C@@H](NC(=O)[C@](C)(Cc1ccccc1)NC(=O)[C@H](CO)NC(=O)CNC(=O)[C@H](CCC(=O)O)NC(=O)C(C)(C)NC(=O)[C@@H](N)Cc1c[nH]cn1)[C@@H](C)O)C(C)C)[C@@H](C)CC)C(=O)N[C@H](C(=O)N[C@@](C)(CCCCN)C(=O)NCC(=O)NCC(N)=O)C(C)C)C(=O)O [compound 74] (H-H[Aib]EGS[αMeF]TSDV[αMeS]S[αMeF]LEGEAA[αMeK]E[αMeF]IA[αMeF]K([γGlu-Palmitoyl])V[αMeK]GG-NH2)	–	–	–	–	–	–	–	≤ 7.55	≤ 7.55	11.64	–	–	102	10.11	9.90	≤ 7.55	≤ 7.55
CC[C@H](C)[C@H](NC(=O)[C@](C)(Cc1ccccc1)NC(=O)[C@H](CCC(=O)O)NC(=O)[C@H](CCCCNC(=O)COCCOCCNC(=O)COCCOCCNC(=O)CC[C@H](NC(=O)CCCCCCCCCCCCCCCCC(=O)O)C(=O)O)NC(=O)[C@H](C)NC(=O)[C@H](C)NC(=O)[C@H](CCC(=O)O)NC(=O)CNC(=O)[C@H](CCC(=O)O)NC(=O)[C@H](CC(C)C)NC(=O)[C@](C)(Cc1ccccc1)NC(=O)[C@H](CO)NC(=O)[C@](C)(CO)NC(=O)[C@@H](NC(=O)[C@H](CC(=O)O)NC(=O)[C@H](CO)NC(=O)[C@@H](NC(=O)[C@H](Cc1ccccc1)NC(=O)[C@H](CO)NC(=O)CNC(=O)[C@H](CCC(=O)O)NC(=O)C(C)(C)NC(=O)[C@@H](N)Cc1c[nH]cn1)[C@@H](C)O)C(C)C)C(=O)N[C@@H](C)C(=O)N[C@@](C)(Cc1ccccc1)C(=O)N[C@H](C(=O)N[C@H](C(=O)N[C@@](C)(CCCCN)C(=O)NCC(=O)NCC(N)=O)C(C)C)C(C)C [compound 45]	–	–	–	–	–	–	–	≤ 7.59	≤ 7.59	8.42	8.48	3560	94600	7.12	6.95	≤ 7.59	≤ 7.59
